Reference: patent publication US20160280688A1, “SUBSTITUTED PHENYLALANINE DERIVATIVES” (BAYER PHARMA AKTIENGESELLSCHAFT, priority 2013, published 2016)
Where a name gives a salt, the structure may show the parent alone.

Experiments:
Type in all cases: biochemical
human factor XIa = molecular target: T1, human factor XIa (Homo sapiens, UniProt P03951); assay: Measurement of FXIa inhibition (fluorogenic peptide substrate Boc-Glu(OBzl)-Ala-Arg-AMC); details: factor XIa from Kordia, 15 min preincubation, 30 min at 22° C., fluorescence
T1 construct: purchased Kordia
T1 sequence (P03951 388-625 limits assumed): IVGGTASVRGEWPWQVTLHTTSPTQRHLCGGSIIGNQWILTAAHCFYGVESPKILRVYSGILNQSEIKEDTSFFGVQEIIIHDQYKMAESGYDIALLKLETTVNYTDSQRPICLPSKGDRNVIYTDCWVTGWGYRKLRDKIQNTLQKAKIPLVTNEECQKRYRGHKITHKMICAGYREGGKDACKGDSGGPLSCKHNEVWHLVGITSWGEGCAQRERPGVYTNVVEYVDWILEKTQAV
T1 sequence (P03951 19-387 partner limits assumed): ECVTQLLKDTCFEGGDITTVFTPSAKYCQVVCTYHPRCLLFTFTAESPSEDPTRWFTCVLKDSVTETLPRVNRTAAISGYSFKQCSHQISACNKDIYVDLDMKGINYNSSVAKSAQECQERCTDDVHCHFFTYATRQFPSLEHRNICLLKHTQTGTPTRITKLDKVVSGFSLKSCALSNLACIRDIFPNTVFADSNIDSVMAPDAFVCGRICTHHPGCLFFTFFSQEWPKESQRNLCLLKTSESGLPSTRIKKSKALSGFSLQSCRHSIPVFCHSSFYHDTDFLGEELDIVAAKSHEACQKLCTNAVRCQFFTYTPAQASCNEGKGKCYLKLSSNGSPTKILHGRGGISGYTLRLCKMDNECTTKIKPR
Procedure: To determine the factor XIa inhibition of the substances according to the invention, a biochemical test system is used which utilizes the reaction of a peptidic factor XIa substrate to determine the enzymatic activity of human factor XIa. Here, factor XIa cleaves from the peptic factor XIa substrate the C-terminal aminomethylcoumarin (AMC), the fluorescence of which is measured. The determinations are carried out in microtitre plates.
(§1) Test substances are dissolved in dimethyl sulphoxide and serially diluted in dimethyl sulphoxide (3000 μM to 0.0078 μM; resulting final concentrations in the test: 50 μM to 0.00013 μM). In each case 1 μl of the diluted substance solutions are placed into the wells of white microtitre plates from Greiner (384 wells). Subsequently, the following are added successively: 20 μl of assay buffer (50 mmol/l Tris buffer pH 7.4; 100 mmol/l sodium chloride; 5 mmol/l calcium chloride; 0.1% bovine serum albumin) and 20 μl of factor XIa from Kordia (0.45 nM in assay buffer). After 15 min of incubation, the enzyme reaction is started by addition of 20 μl of the factor XIa substrate Boc-Glu(OBzl)-Ala-Arg-AMC dissolved in assay buffer (10 μM in assay buffer) from Bachem, the mixture is incubated at room temperature (22° C.) for 30 min and fluorescence is then measured (excitation: 360 nm, emission: 460 nm). The measured emissions of the test batches with test substance are compared to those of control batches without test substance (only dimethyl sulphoxide instead of test substance in dimethyl sulphoxide), and IC50 values are calculated from the concentration/activity relationships.

human and animal plasma = assay: Determination of the anticoagulatory activity: activated partial thromboplastin time (aPTT) in plasma; details: in vitro in plasma, C.K. Prest kit, 3 min at 37° C.
Procedure: The anticoagulatory activity of the test substances is determined in vitro in human and animal plasma (for example mouse, rat, rabbit, pig and dog plasma). To this end, blood is drawn off in a mixing ratio of sodium citrate/blood of 1:9 using a 0.11 molar sodium citrate solution as receiver. Immediately after the blood has been drawn off, it is mixed thoroughly and centrifuged at about 4000 g for 15 minutes. The supernatant is pipetted off.
The activated partial thromboplastin time (aPTT) is determined in the presence of varying concentrations of test substance or the corresponding solvent using a commercial test kit (C.K. Prest from Diagnostica Stago). The test compounds are incubated with the plasma and the PTT reagent (cephalin, kaolin) at 37° C. for 3 minutes. Coagulation is then started by addition of a 25 mM aqueous calcium chloride solution, and the time when coagulation occurs is determined. The concentration of test substance which brings about a 1.5-fold extension of the aPTT is determined Activity data from this test are listed in Table B below: […]

human plasmin = molecular target: T2, human plasmin (Homo sapiens, UniProt P00747); assay: Measurement of plasmin inhibition (fluorogenic peptide substrate MeOSuc-Ala-Phe-Lys-AMC); details: plasmin from Kordia, 15 min preincubation, 30 min at 22° C., fluorescence
T2 construct: purchased Kordia
T2 sequence (P00747 581-810 limits assumed): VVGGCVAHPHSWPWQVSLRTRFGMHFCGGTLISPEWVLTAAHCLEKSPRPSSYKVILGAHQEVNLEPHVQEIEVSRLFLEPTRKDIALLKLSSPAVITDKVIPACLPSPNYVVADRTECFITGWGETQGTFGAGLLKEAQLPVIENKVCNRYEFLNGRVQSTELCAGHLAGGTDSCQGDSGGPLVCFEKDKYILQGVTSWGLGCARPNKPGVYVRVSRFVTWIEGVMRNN
T2 sequence (P00747 97-580 partner limits assumed): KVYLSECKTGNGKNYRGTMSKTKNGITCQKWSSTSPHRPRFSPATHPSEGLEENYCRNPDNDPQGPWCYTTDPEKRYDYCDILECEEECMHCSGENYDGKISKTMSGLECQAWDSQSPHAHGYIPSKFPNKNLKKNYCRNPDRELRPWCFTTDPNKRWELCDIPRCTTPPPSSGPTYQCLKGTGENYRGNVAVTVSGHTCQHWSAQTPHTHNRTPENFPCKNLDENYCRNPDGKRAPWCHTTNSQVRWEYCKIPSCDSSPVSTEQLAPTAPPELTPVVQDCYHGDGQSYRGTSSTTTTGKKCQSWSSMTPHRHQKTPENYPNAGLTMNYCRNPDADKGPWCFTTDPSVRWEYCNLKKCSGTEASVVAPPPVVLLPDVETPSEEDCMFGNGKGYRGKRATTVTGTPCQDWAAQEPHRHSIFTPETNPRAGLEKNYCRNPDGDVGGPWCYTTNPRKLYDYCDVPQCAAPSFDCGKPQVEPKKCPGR
Procedure: The plasmin inhibition of the inventive substances is determined using a biochemical test system which utilizes the reaction of a peptidic plasmin substrate to determine the enzymatic activity of human plasmin. Here, plasmin cleaves from the peptic plasmin substrate the C-terminal aminomethylcoumarin (AMC), the fluorescence of which is measured. The determinations are carried out in microtitre plates.
as §1, with “plasmin” for “factor XIa”, “(0.3 μg/ml” for “(0.45 nM”, “MeOSuc-Ala-Phe-Lys-AMC” for “Boc-Glu(OBzl)-Ala-Arg-AMC”, “(150” for “(10”, “ICso” for “IC50”

IC50 (human factor XIa)	IC50 (human plasmin)	SMILES	aPTT (concentration of test substance which brings about a 1.5-fold extension of the aPTT) (human and animal plasma)
6.9 nM	1.5 nM	CC(C)c1nc2c(F)c(F)c(-c3ccc(C[C@H](NC(=O)[C@H]4CC[C@H](CN)CC4)C(=O)Nc4ccc5[nH]c(=O)[nH]c5c4)cc3)cc2[nH]1 [Example 35, N-alpha-{[trans-4-(Aminomethyl)cyclohexyl]carbonyl}-4-(4,5-difluoro-2-isopropyl-1H-benzimidazol-6-yl)-N-(2-oxo-2,3-dihydro-1H-benzimidazol-5-yl)-L-phenylalaninamide hydrochloride]	0.54 µmol/L
17 nM	5.9 nM	CC(C)n1[nH]c2cc(-c3ccc(C[C@H](NC(=O)[C@H]4CC[C@H](CN)CC4)C(=O)Nc4ccc5[nH]c(=O)[nH]c5c4)cc3)ccc2c1=O [Example 33, N-alpha-{[trans-4-(Aminomethyl)cyclohexyl]carbonyl}-4-(2-isopropyl-3-oxo-2,3-dihydro-1H-indazol-6-yl)-N-(2-oxo-2,3-dihydro-1H-benzimidazol-5-yl)-L-phenylalaninamide hydrochloride]	0.1 µmol/L
1.4 nM	2.7 nM	Cc1cc2oc(C3CC3)nc2cc1-c1ccc(C[C@H](NC(=O)[C@H]2CC[C@H](CN)CC2)C(=O)Nc2ccc(-c3nnn[nH]3)cc2)cc1.Cl (relative stereo) [Example 26, N-alpha-{[trans-4-(Aminomethyl)cyclohexyl]carbonyl}-4-(2-cyclopropyl-6-methyl-1,3-benzoxazol-5-yl)-N-[4-(1H-tetrazol-5-yl)phenyl]-L-phenylalaninamide hydrochloride]	0.18 µmol/L
4.9 nM	0.5 nM	Cc1cc2nc(C(C)C)[nH]c2nc1-c1ccc(C[C@H](NC(=O)[C@H]2CC[C@H](CN)CC2)C(=O)Nc2ccc3[nH]c(=O)[nH]c3c2)cc1 [Example 37, N-alpha-{[trans-4-(Aminomethyl)cyclohexyl]carbonyl}-4-(2-isopropyl-6-methyl-3H-imidazo[4,5-b]pyridin-5-yl)-N-(2-oxo-2,3-dihydro-1H-benzimidazol-5-yl)-L-phenylalaninamide hydrochloride]	0.06 µmol/L
3.1 nM	2.1 nM	CC(C)c1nc2cc(C(F)(F)F)c(-c3ccc(C[C@H](NC(=O)[C@H]4CC[C@H](CN)CC4)C(=O)Nc4ccc5[nH]c(=O)[nH]c5c4)cc3)cc2[nH]1 [Example 31, N-alpha-{[trans-4-(Aminomethyl)cyclohexyl]carbonyl}-4-[2-isopropyl-5-(trifluoromethyl)-1H-benzimidazol-6-yl]-N-(2-oxo-2,3-dihydro-1H-benzimidazol-5-yl)-L-phenylalaninamide hydrochloride]	0.07 µmol/L
28 nM	8.7 nM	CC(C)n1[nH]c2cc(-c3ccc(C[C@H](NC(=O)[C@H]4CC[C@H](CN)CC4)C(=O)Nc4ccc5cn[nH]c5c4)cc3)ccc2c1=O [Example 32, N-alpha-{[trans-4-(Aminomethyl)cyclohexyl]carbonyl}-N-1H-indazol-6-yl-4-(2-isopropyl-3-oxo-2,3-dihydro-1H-indazol-6-yl)-L-phenylalaninamide hydrochloride]	0.43 µmol/L
0.9 nM	22 nM	Cc1cc2nc[nH]c2cc1-c1ccc(C[C@H](NC(=O)C2CCC(CN)CC2)C(=O)Nc2ccc(-c3nn[nH]n3)cc2)cc1 (stereo partly drawn) [Example 1, N-alpha-{[trans-4-(Aminomethyl)cyclohexyl]carbonyl}-4-(5-methyl-1H-benzimidazol-6-yl)-N-[4-(2H-tetrazol-5-yl)phenyl]-L-phenylalaninamide hydrochloride]	0.07 µmol/L
0.7 nM	0.4 nM	Cc1nc2[nH]c(C3CC3)nc2cc1-c1ccc(C[C@H](NC(=O)[C@H]2CC[C@H](CN)CC2)C(=O)Nc2ccc3[nH]c(=O)[nH]c3c2)cc1 [Example 21, N-alpha-{[trans-4-(Aminomethyl)cyclohexyl]carbonyl}-4-(2-cyclopropyl-5-methyl-1H-imidazo[4,5-b]pyridin-6-yl)-N-(2-oxo-2,3-dihydro-1H-benzimidazol-5-yl)-L-phenylalaninamide]	0.3 µmol/L
0.9 nM	0.4 nM	Cc1cc2[nH]c(C3CC3)nc2cc1-c1ccc(C[C@H](NC(=O)[C@H]2CC[C@H](CN)CC2)C(=O)Nc2cc(Cl)c3[nH]c(=O)[nH]c3c2)cc1 [Example 20, N-alpha-{[trans-4-(Aminomethyl)cyclohexyl]carbonyl}-N-(7-chloro-2-oxo-2,3-dihydro-1H-benzimidazol-5-yl)-4-(2-cyclopropyl-6-methyl-1H-benzimidazol-5-yl)-L-phenylalaninamide]	0.26 µmol/L
0.5 nM	0.6 nM	Cc1cc2[nH]c(C3CC3)nc2cc1-c1ccc(C[C@H](NC(=O)[C@H]2CC[C@H](CN)CC2)C(=O)Nc2cc(F)c3c(=O)[nH][nH]c3c2)cc1 [Example 22, N-alpha-{[trans-4-(Aminomethyl)cyclohexyl]carbonyl}-4-(2-cyclopropyl-6-methyl-1H-benzimidazol-5-yl)-N-(4-fluoro-3-oxo-2,3-dihydro-1H-indazol-6-yl)-L-phenylalaninamide hydrochloride]	0.18 µmol/L
0.9 nM	0.45 nM	Cc1c(-c2ccc(C[C@H](NC(=O)[C@H]3CC[C@H](CN)CC3)C(=O)Nc3ccc4[nH]c(=O)[nH]c4c3)cc2)cc2nc(C3CCC3)[nH]c2c1F [Example 27, N-alpha-{[trans-4-(Aminomethyl)cyclohexyl]carbonyl}-4-(2-cyclobutyl-7-fluoro-6-methyl-1H-benzimidazol-5-yl)-N-(2-oxo-2,3-dihydro-1H-benzimidazol-5-yl)-L-phenylalaninamide]	0.16 µmol/L
3.6 nM	1.2 nM	Cc1cc2nc(C3CC3)nn2cc1-c1ccc(C[C@H](NC(=O)[C@H]2CC[C@H](CN)CC2)C(=O)Nc2ccc3[nH]c(=O)[nH]c3c2)cc1 [Example 36, N-alpha-{[trans-4-(Aminomethyl)cyclohexyl]carbonyl}-4-(2-cyclopropyl-7-methyl[1,2,4]triazolo[1,5-a]pyridin-6-yl)-N-(2-oxo-2,3-dihydro-1H-benzimidazol-5-yl)-L-phenylalaninamide hydrochloride]	0.08 µmol/L
1.5 nM	1.7 nM	Cc1cc2c(=O)n(C(C)C)[nH]c2cc1-c1ccc(C[C@H](NC(=O)[C@H]2CC[C@H](CN)CC2)C(=O)Nc2ccc3[nH]c(=O)[nH]c3c2)cc1 [Example 34, N-alpha-{[trans-4-(Aminomethyl)cyclohexyl]carbonyl}-4-(2-isopropyl-5-methyl-3-oxo-2,3-dihydro-1H-indazol-6-yl)-N-(2-oxo-2,3-dihydro-1H-benzimidazol-5-yl)-L-phenylalaninamide hydrochloride]	0.11 µmol/L
